Experimental data from US5583142A, “Analgesic and nootropic drugs” (priority 1992, dated 1996).
Values joined by “and” are separate entries in the source; they are usually repeats but may differ in a detail not shown here. Equal values may be shown once. Where a name gives a salt, the structure may show the parent alone. Read-outs that look alike come from different tables or passages of the source.

Columns and labels:
[1] = mouse rota-rod test (16 r.p.m.)
Excerpt: All products tested to detect their antinociceptive activity had been previously tested by the rota-rod test to determine their maximum utilizable dose in analgesic tests. In fact, by this test it is possible to determine the highest dose of drug not impairing the normal performance of animals in a test that simultaneously evaluates motor coordination, equilibrium, resistance to fatigue, and muscle strength. This test is meant to evaluate the capability of mice to stay balanced on a rotating rod [cf. Vaught et al., Neuropharmacology, 24 (3) 211-216 (1985)].
The calculated doses were those used in the two analgesic tests on mice.

[2] = format: in vivo, mouse; settings: for ED50 compared with claimed compounds / analgesic efficacy / degree of analgesia compared with claimed compounds: mouse hot plate; for Efficacy as analgesic (Morphine = 100), M.E. (Maximum Analgesic Effect) / Efficacy as analgesic (Morphine = 100), AUC (Area Under Curve): in vivo
Protocol: (§1) The analgesic action was detected in mouse, rat, guinea pig and dog. The mouse was subjected to hot plate and writhing tests; the rat to tail-flick and paw-pressure tests; the guinea pig to paw-pressure test only; the dog to the test described by Vainio et al. [J. Vet. Pharmacol. Ther., 12, 225-231 (1989)] using an electric stimulation. Consequently, the claimed compounds were tested with pain being induced by stimuli of different nature: thermal (hot plate and tail flick), chemical (writhing by acetic acid), mechanical (paw pressure) and electrical (cutaneous stimulation).
(§2) Potency, efficacy and toxicity of SM21, PG9 and SM32 in comparison with
(§3) four principal reference analgesic drugs tested in mouse. As analgesic

[3] = mouse acetic acid writhing test; format: in vivo; settings: for efficacy in writhing test, in words / number of writhes / Efficacy as analgesic (Morphine = 100) / percent inhibition: mouse; for Efficacy as analgesic (Morphine = 100) / percent inhibition: writhing; for ED50: mouse writhing
Protocol: as §1
The claimed molecules, chosen as examples, were also assayed in mice by the writhing test (Table 4). The test is meant to evaluate the products capability to prevent mice writhes ensuing abdominal pains caused by i.p. injection of a 0.6% aqueous solution of acetic acid.
Acetic acid solution = 0.6% v/v.

rat paw-pressure test = format: in vivo
Protocol: as §1
(§4) As already mentioned, the claimed products were assayed also in rat by the paw-pressure and tail-flick tests.
(§5) Both tests were carried out with the max. doses not impairing the rats normal behaviour. […] The painful stimulus utilized in the paw-pressure test involved the animal consciousness to a much greater extent than the stimulus used in the tail-flick test, in fact, the type and anatomic localization of the latter mainly involved a spinal response.
(§6) Both tests on rats were carried out with the max. doses not altering the behaviour of the treated animals.

rat tail-flick test = format: in vivo
Protocol: as §1, §4, §5, §6
The test was performed using th

[4] = paw-pressure test in rats with a lesion in the nucleus basalis magnocellularis (NBM); format: in vivo, rat; settings: 4 mg/kg i.p.
Excerpt: 3. […] In fact, as known, the magnocellular basal nucleus destruction causes the degeneration of most central cholinergic system.

in vivo = settings: mouse
Excerpt: as §2, §3

[5] = 25 mg/kg s.c., 15 min after treatment
[6] = 25 mg/kg s.c., 30 min after treatment
[7] = 25 mg/kg s.c., 45 min after treatment
[8] = mouse, 20 mg/kg i.p., 15 min after treatment
[9] = mouse, 20 mg/kg i.p., 30 min after treatment
[10] = mouse, 20 mg/kg i.p., 45 min after treatment
[11] = mouse, 20 mg/kg s.c., 15 min after treatment
[12] = mouse, 20 mg/kg s.c., 30 min after treatment
[13] = mouse, 20 mg/kg s.c., 45 min after treatment
[14] = 15 mg/kg i.p., 15 min after treatment
[15] = 15 mg/kg i.p., 30 min after treatment
[16] = 15 mg/kg i.p., 45 min after treatment
[17] = 25 mg/kg i.p., 15 min after treatment
[18] = 25 mg/kg i.p., 30 min after treatment
[19] = 25 mg/kg i.p., 45 min after treatment
[20] = 100 mg/kg i.p., 15 min after treatment
[21] = 100 mg/kg i.p., 30 min after treatment
[22] = 100 mg/kg i.p., 45 min after treatment

CN(C)CCOC(c1ccccc1)c1ccccc1 [Diphenhydramine, reference compound]
rota-rod performance (number of falls in 30 s) [1, 5]: 2.0 ± 0.5 falls in 30 s
rota-rod performance (number of falls in 30 s) [1, 6]: 1.0 ± 0.3 falls in 30 s
rota-rod performance (number of falls in 30 s) [1, 7]: 1.4 ± 0.4 falls in 30 s
rota-rod performance (number of falls in 30 s) ([1]; 30 mg/kg s.c., 15 min after treatment): 2.1 ± 0.4 falls in 30 s
rota-rod performance (number of falls in 30 s) ([1]; 30 mg/kg s.c., 30 min after treatment): 1.5 ± 0.3 falls in 30 s
rota-rod performance (number of falls in 30 s) ([1]; 30 mg/kg s.c., 45 min after treatment): 1.5 ± 0.4 falls in 30 s
rota-rod performance (number of falls in 30 s) ([1]; 40 mg/kg s.c., 15 min after treatment): 4.3 ± 0.4 falls in 30 s
rota-rod performance (number of falls in 30 s) ([1]; 40 mg/kg s.c., 30 min after treatment): 3.1 ± 0.4 falls in 30 s
rota-rod performance (number of falls in 30 s) ([1]; 40 mg/kg s.c., 45 min after treatment): 2.3 ± 0.4 falls in 30 s
ED50 compared with claimed compounds [2]: equivalent to those of the claimed compounds
analgesic efficacy / degree of analgesia compared with claimed compounds [2]: much lower degree of analgesia
Efficacy as analgesic (Morphine = 100), M.E. (Maximum Analgesic Effect) ([2]; mouse): 43
hot-plate latency [2, 8]: 21.6 ± 2.5 s
hot-plate latency [2, 9]: 17.7 ± 1.6 s
hot-plate latency [2, 10]: 17.1 ± 1.8 s
hot-plate latency [2, 11]: 23.6 ± 2.6 s
hot-plate latency [2, 12]: 18.0 ± 1.4 s
hot-plate latency [2, 13]: 18.7 ± 2.1 s
efficacy in writhing test, in words [3]: far less efficacious
number of writhes ([3]; 20 mg/kg s.c.): 24.6 ± 2.4
Efficacy as analgesic (Morphine = 100) ([3]; 20 mg/kg s.c.): 38
percent inhibition ([3]; 20 mg/kg s.c.): 28.1%
ED50 ([3]; sc): 7.8 mg/kg and 30.5 µmol/kg
activity in paw-pressure test, in words (rat paw-pressure test): inactive
paw-pressure (rat paw-pressure test; [14]): 72.6 ± 6.8 g
paw-pressure (rat paw-pressure test; [15]): 70.0 ± 5.4 g
paw-pressure (rat paw-pressure test; [16]): 68.0 ± 6.6 g
activity in tail-flick test, in words (rat tail-flick test): inactive
tail-flick (rat tail-flick test; [14]): 2.9 ± 0.2 s
tail-flick (rat tail-flick test; [15]): 2.5 ± 0.2 s
tail-flick (rat tail-flick test; [16]): 2.5 ± 0.1 s

NCC(CC(=O)O)c1ccc(Cl)cc1 (stereo not shown) [Baclofen, reference compound]
paw-pressure ([4]; lesioned (NBM) rats, 15 min after treatment): 117.4 ± 6.4 g
paw-pressure ([4]; lesioned (NBM) rats, 30 min after treatment): 137.9 ± 4.8 g
paw-pressure ([4]; lesioned (NBM) rats, 45 min after treatment): 131.8 ± 5.7 g
paw-pressure ([4]; sham rats, 15 min after treatment): 108.7 ± 6.6 g
paw-pressure ([4]; sham rats, 30 min after treatment): 132.8 ± 5.9 g
paw-pressure ([4]; sham rats, 45 min after treatment): 124.7 ± 5.8 g

CN(C)CCCN1c2ccccc2CCc2ccc(Cl)cc21 [Clomipramine HCl, reference compound]
rota-rod performance (number of falls in 30 s) [1, 5]: 2.4 ± 0.5 falls in 30 s
rota-rod performance (number of falls in 30 s) [1, 6]: 2.1 ± 0.6 falls in 30 s
rota-rod performance (number of falls in 30 s) [1, 7]: 2.1 ± 0.6 falls in 30 s
rota-rod performance (number of falls in 30 s) ([1]; 45 mg/kg s.c., 15 min after treatment): 2.8 ± 0.4 falls in 30 s
rota-rod performance (number of falls in 30 s) ([1]; 45 mg/kg s.c., 30 min after treatment): 3.6 ± 0.4 falls in 30 s
rota-rod performance (number of falls in 30 s) ([1]; 45 mg/kg s.c., 45 min after treatment): 3.5 ± 0.6 falls in 30 s
rota-rod performance (number of falls in 30 s) ([1]; 50 mg/kg s.c., 15 min after treatment): 1.8 ± 0.4 falls in 30 s
rota-rod performance (number of falls in 30 s) ([1]; 50 mg/kg s.c., 30 min after treatment): 1.8 ± 0.4 falls in 30 s
rota-rod performance (number of falls in 30 s) ([1]; 50 mg/kg s.c., 45 min after treatment): 1.5 ± 0.4 falls in 30 s
rota-rod performance (number of falls in 30 s) ([1]; 60 mg/kg s.c., 15 min after treatment): 1.5 ± 0.4 falls in 30 s
rota-rod performance (number of falls in 30 s) ([1]; 60 mg/kg s.c., 30 min after treatment): 2.6 ± 0.3 falls in 30 s
rota-rod performance (number of falls in 30 s) ([1]; 60 mg/kg s.c., 45 min after treatment): 3.1 ± 0.5 falls in 30 s
NOAEL ([1]; mouse, in vivo, sc): 20.2 mg/kg
ED50 compared with claimed compounds [2]: equivalent to those of the claimed compounds
analgesic efficacy / degree of analgesia compared with claimed compounds [2]: much lower degree of analgesia
Efficacy as analgesic (Morphine = 100), AUC (Area Under Curve) ([2]; mouse): 17
Efficacy as analgesic (Morphine = 100), M.E. (Maximum Analgesic Effect) ([2]; mouse): 19
hot-plate latency [2, 8]: 24.8 ± 2.8 s
hot-plate latency [2, 9]: 25.2 ± 2.2 s
hot-plate latency [2, 10]: 23.2 ± 2.1 s
hot-plate latency [2, 11]: 17.4 ± 1.1 s
hot-plate latency [2, 12]: 19.3 ± 0.9 s
hot-plate latency [2, 13]: 16.5 ± 0.8 s
LD50 (in vivo; iv): 44 mg/kg and 125 µmol/kg
efficacy in writhing test, in words [3]: far less efficacious
number of writhes ([3]; 20 mg/kg s.c.): 18.2 ± 2.1
Efficacy as analgesic (Morphine = 100) ([3]; 20 mg/kg s.c.): 63
percent inhibition ([3]; 20 mg/kg s.c.): 46.8%
ED50 ([3]; sc): 9.7 mg/kg and 27.6 µmol/kg
activity in paw-pressure test, in words (rat paw-pressure test): almost equivalent analgesia
paw-pressure (rat paw-pressure test; [17]): 85.0 ± 6.8 g
paw-pressure (rat paw-pressure test; [18]): 99.0 ± 6.6 g
paw-pressure (rat paw-pressure test; [19]): 91.7 ± 7.4 g
activity in tail-flick test, in words (rat tail-flick test): inactive
tail-flick (rat tail-flick test; [17]): 2.9 ± 0.2 s
tail-flick (rat tail-flick test; [18]): 2.6 ± 0.1 s
tail-flick (rat tail-flick test; [19]): 2.6 ± 0.2 s

O=C(c1ccccc1)c1ccc2n1CCC2C(=O)O (stereo not shown) [Ketorolac Trometamine]
Efficacy as analgesic (Morphine = 100), AUC (Area Under Curve) ([2]; mouse): 46
Efficacy as analgesic (Morphine = 100), M.E. (Maximum Analgesic Effect) ([2]; mouse): 55
hot-plate latency ([2]; mouse, 175 mg/kg i.p., 15 min after treatment): 26.5 ± 3.4 s
hot-plate latency ([2]; mouse, 175 mg/kg i.p., 30 min after treatment): 19.6 ± 1.4 s
hot-plate latency ([2]; mouse, 175 mg/kg i.p., 45 min after treatment): 17.7 ± 1.5 s
hot-plate latency ([2]; mouse, 175 mg/kg s.c., 15 min after treatment): 16.3 ± 1.1 s
hot-plate latency ([2]; mouse, 175 mg/kg s.c., 30 min after treatment): 15.0 ± 1.2 s
hot-plate latency ([2]; mouse, 175 mg/kg s.c., 45 min after treatment): 15.1 ± 1.6 s
activity on hot plate, s.c. administration ([2]; mouse, s.c.): inactive
LD50 (in vivo; ip): 1260 µmol/kg
ED50 ([3]; ip): 8.3 mg/kg and 22 µmol/kg
efficacy in writhing test, in words [3]: higher than by morphine
number of writhes ([3]; 10 mg/kg i.p.): 6.3 ± 1.4
number of writhes ([3]; 175 mg/kg i.p.): 0.3 ± 0.3
Efficacy as analgesic (Morphine = 100) ([3]; 10 mg/kg i.p.): 110
percent inhibition ([3]; 10 mg/kg i.p.): 81.6%
Efficacy as analgesic (Morphine = 100) ([3]; 175 mg/kg i.p.): 133
percent inhibition ([3]; 175 mg/kg i.p.): 99.1%
activity in paw-pressure test, in words (rat paw-pressure test): almost equivalent analgesia
paw-pressure (rat paw-pressure test; [20]): 59.3 ± 5.6 g
paw-pressure (rat paw-pressure test; [21]): 97.4 ± 6.2 g
paw-pressure (rat paw-pressure test; [22]): 74.6 ± 5.8 g
activity in tail-flick test, in words (rat tail-flick test): inactive
tail-flick (rat tail-flick test; [20]): 3.3 ± 0.2 s
tail-flick (rat tail-flick test; [21]): 3.2 ± 0.2 s
tail-flick (rat tail-flick test; [22]): 2.6 ± 0.3 s
